The results in this text go back to PubChem BioAssay (NCI).

Structures are written as SMILES.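 1) Cells in 96-well plates. 2) Compound, 48 h, 5 concentrations. 3) Linear interpolation between surrounding doses. 4) Unreached endpoint = highest concentration. TGI marks complete inhibition of growth.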 A value given as a limit tells only on which side of the number the result lay.

The first assay concerns OVCAR-8 ovarian. The assay is described as follows: NCI-60 cell line screen, 48 h.
Consider `Clc1cc(C(c2cc(Cl)sc2Cl)c2cc(Cl)sc2Cl)c(Cl)s1`, for which the TGI was > 100 µM.

The compound `O=P(OCc1ccccc1)(OCc1ccccc1)C(O)/C=C/c1ccccc1` (stereo not given) returned a TGI of 55.9 µM.

Turning to `C[N+]1(CCN=C=NC2CCCCC2)CCOCC1`, the TGI is > 100 µM.

Take `Cc1cc(S(=O)(=O)Nc2n[nH]c(Nc3ccccc3)n2)c(SCC(=O)O)cc1Cl`: the TGI was > 100 µM.

`NCCN(CCN(C(=O)Nc1ccccc1)c1ccccc1)C(=O)Nc1ccccc1` registered a TGI of 52.2 µM.

The compound `COc1cc2c3c(cc(Cl)nc3c1OC)C(=O)C(=O)N2` yielded a TGI of 43.9 µM.

`CCCCCCCCCCCCOCCOCCOCCOCCOCCOCC(=O)NC(Cc1ccccc1)C(=O)Oc1ccc([N+](=O)[O-])cc1` (stereo not given): the TGI was > 100 µM.

Compound `O=C1CS/C(=N/N=C/c2cn(Cc3ccc(Cl)cc3Cl)c3ccccc23)N1` registered a TGI of 30.6 µM.

As for `O=C1CC(c2ccccc2Cl)C2(C(=O)NC(=O)NC2=O)C(c2ccccc2Cl)C1` (stereo not given), the TGI was > 100 µM.

Consider `Cc1cn(CCCCCOC(=O)NC(CCCNC(N)=O)C(=O)O)c(=O)[nH]c1=O` (stereo not given), for which the TGI is > 100 µM.

On to `O=C1N/N=C\c2ccc(cc2)OCc2cccc(n2)COc2ccc(cc2)/C=N\NC1=O`, for which the TGI is > 25 µM.

Consider `CC1CCc2sc3nc4n(c(=O)c3c2C1)CC(C)S4` (stereo not given), for which the TGI was > 100 µM.

In the case of `Cc1cccc(NS(=O)(=O)c2ccc(N=Nc3c(O)c(C(=O)O)cc4ccccc34)cc2)n1`, the TGI was > 100 µM.

As to `O=C(OC12CC3CC(CC(C3)C1)C2)c1ccc(NCc2cc(O)ccc2O)cc1`, the TGI worked out at 4.11 µM.

Take `C#CCOCC12C=CC(O1)C1COC(=O)C12` (stereo not given): the TGI was > 100 µM.

In the case of `C=C(C)[C@H]1CC(=O)/C(C)=C\CC/C(C)=C/CC[C@@]2(C)O[C@@H]2C1`, the TGI was > 100 µM.

On to `CN(C)CCCNc1cc(O)c2c(c1O)C(=O)c1ccccc1C2=O`, for which the TGI was 30.5 µM.

On to `C[n+]1c(-c2ccc(NC(=O)c3ccc(C(=O)Nc4ccc(-c5cn6ccccc6[n+]5C)cc4)cc3)cc2)cn2ccccc21`, for which the TGI was > 100 µM.

For a further assay, the system named is RPMI-8226 leukemia. Nature of the assay: NCI-60 cell line screen, 48 h.
With `Clc1cc(C(c2cc(Cl)sc2Cl)c2cc(Cl)sc2Cl)c(Cl)s1`, the TGI was > 100 µM.

Consider `O=P(OCc1ccccc1)(OCc1ccccc1)C(O)/C=C/c1ccccc1` (stereo not given), for which the TGI was found to be 82.8 µM.

On to `C[N+]1(CCN=C=NC2CCCCC2)CCOCC1`, for which the TGI is > 100 µM.

For `Cc1cc(S(=O)(=O)Nc2n[nH]c(Nc3ccccc3)n2)c(SCC(=O)O)cc1Cl`, the TGI was > 100 µM.

Turning to `NCCN(CCN(C(=O)Nc1ccccc1)c1ccccc1)C(=O)Nc1ccccc1`, the TGI is > 100 µM.

As for `COc1cc2c3c(cc(Cl)nc3c1OC)C(=O)C(=O)N2`, the TGI is > 100 µM.

On to `CCCCCCCCCCCCOCCOCCOCCOCCOCCOCC(=O)NC(Cc1ccccc1)C(=O)Oc1ccc([N+](=O)[O-])cc1` (stereo not given), for which the TGI is > 100 µM.

As for `O=C1CS/C(=N/N=C/c2cn(Cc3ccc(Cl)cc3Cl)c3ccccc23)N1`, the TGI was > 100 µM.

As to `O=C1CC(c2ccccc2Cl)C2(C(=O)NC(=O)NC2=O)C(c2ccccc2Cl)C1` (stereo not given), the TGI was > 100 µM.

As for `Cc1cn(CCCCCOC(=O)NC(CCCNC(N)=O)C(=O)O)c(=O)[nH]c1=O` (stereo not given), the TGI was > 100 µM.

On to `O=C1N/N=C\c2ccc(cc2)OCc2cccc(n2)COc2ccc(cc2)/C=N\NC1=O`, for which the TGI is > 25 µM.

Turning to `CC1CCc2sc3nc4n(c(=O)c3c2C1)CC(C)S4` (stereo not given), the TGI was > 100 µM.

Regarding `Cc1cccc(NS(=O)(=O)c2ccc(N=Nc3c(O)c(C(=O)O)cc4ccccc34)cc2)n1`, the TGI is > 100 µM.

`O=C(OC12CC3CC(CC(C3)C1)C2)c1ccc(NCc2cc(O)ccc2O)cc1`: the TGI was determined as 0.401 µM.

On to `C#CCOCC12C=CC(O1)C1COC(=O)C12` (stereo not given), for which the TGI was > 100 µM.

`C=C(C)[C@H]1CC(=O)/C(C)=C\CC/C(C)=C/CC[C@@]2(C)O[C@@H]2C1`: the TGI worked out at 52.1 µM.

In turn, `CN(C)CCCNc1cc(O)c2c(c1O)C(=O)c1ccccc1C2=O` came in with a TGI of 29.8 µM.

With `C[n+]1c(-c2ccc(NC(=O)c3ccc(C(=O)Nc4ccc(-c5cn6ccccc6[n+]5C)cc4)cc3)cc2)cn2ccccc21`, the TGI was > 100 µM.

The test system of the next assay is SR leukemia. Nature of the assay: NCI-60 cell line screen, 48 h.
As to `Clc1cc(C(c2cc(Cl)sc2Cl)c2cc(Cl)sc2Cl)c(Cl)s1`, the TGI is > 100 µM.

The compound `O=P(OCc1ccccc1)(OCc1ccccc1)C(O)/C=C/c1ccccc1` (stereo not given) returned a TGI of 50.7 µM.

Take `C[N+]1(CCN=C=NC2CCCCC2)CCOCC1`: the TGI is > 100 µM.

Regarding `Cc1cc(S(=O)(=O)Nc2n[nH]c(Nc3ccccc3)n2)c(SCC(=O)O)cc1Cl`, the TGI is > 100 µM.

As for `NCCN(CCN(C(=O)Nc1ccccc1)c1ccccc1)C(=O)Nc1ccccc1`, the TGI is > 100 µM.

`COc1cc2c3c(cc(Cl)nc3c1OC)C(=O)C(=O)N2`: the TGI was > 29.6 µM.

With `CCCCCCCCCCCCOCCOCCOCCOCCOCCOCC(=O)NC(Cc1ccccc1)C(=O)Oc1ccc([N+](=O)[O-])cc1` (stereo not given), the TGI came to 63.9 µM.

As for `O=C1CS/C(=N/N=C/c2cn(Cc3ccc(Cl)cc3Cl)c3ccccc23)N1`, the TGI is > 100 µM.

On to `O=C1CC(c2ccccc2Cl)C2(C(=O)NC(=O)NC2=O)C(c2ccccc2Cl)C1` (stereo not given), for which the TGI was > 100 µM.

For `Cc1cn(CCCCCOC(=O)NC(CCCNC(N)=O)C(=O)O)c(=O)[nH]c1=O` (stereo not given), the TGI was > 100 µM.

Consider `O=C1N/N=C\c2ccc(cc2)OCc2cccc(n2)COc2ccc(cc2)/C=N\NC1=O`, for which the TGI was > 25 µM.

`CC1CCc2sc3nc4n(c(=O)c3c2C1)CC(C)S4` (stereo not given): the TGI was > 100 µM.

For the compound `Cc1cccc(NS(=O)(=O)c2ccc(N=Nc3c(O)c(C(=O)O)cc4ccccc34)cc2)n1`, the TGI is > 100 µM.

In turn, `O=C(OC12CC3CC(CC(C3)C1)C2)c1ccc(NCc2cc(O)ccc2O)cc1` gave a TGI of 0.907 µM.

With `C#CCOCC12C=CC(O1)C1COC(=O)C12` (stereo not given), the TGI is > 100 µM.

Turning to `C=C(C)[C@H]1CC(=O)/C(C)=C\CC/C(C)=C/CC[C@@]2(C)O[C@@H]2C1`, the TGI is > 100 µM.

`CN(C)CCCNc1cc(O)c2c(c1O)C(=O)c1ccccc1C2=O` displayed a TGI of 15.9 µM.

As to `C[n+]1c(-c2ccc(NC(=O)c3ccc(C(=O)Nc4ccc(-c5cn6ccccc6[n+]5C)cc4)cc3)cc2)cn2ccccc21`, the TGI is > 100 µM.

The test system of a further assay is U251 CNS. Nature of the assay: NCI-60 cell line screen, 48 h.
With `Clc1cc(C(c2cc(Cl)sc2Cl)c2cc(Cl)sc2Cl)c(Cl)s1`, the TGI was > 100 µM.

The compound `O=P(OCc1ccccc1)(OCc1ccccc1)C(O)/C=C/c1ccccc1` (stereo not given) came in with a TGI of 27.4 µM.

Turning to `C[N+]1(CCN=C=NC2CCCCC2)CCOCC1`, the TGI is > 100 µM.

Take `Cc1cc(S(=O)(=O)Nc2n[nH]c(Nc3ccccc3)n2)c(SCC(=O)O)cc1Cl`: the TGI is > 100 µM.

Regarding `NCCN(CCN(C(=O)Nc1ccccc1)c1ccccc1)C(=O)Nc1ccccc1`, the TGI is > 100 µM.

As for `COc1cc2c3c(cc(Cl)nc3c1OC)C(=O)C(=O)N2`, the TGI was 30.3 µM.

As to `CCCCCCCCCCCCOCCOCCOCCOCCOCCOCC(=O)NC(Cc1ccccc1)C(=O)Oc1ccc([N+](=O)[O-])cc1` (stereo not given), the TGI was > 100 µM.

For `O=C1CS/C(=N/N=C/c2cn(Cc3ccc(Cl)cc3Cl)c3ccccc23)N1`, the TGI is 37.2 µM.

Take `O=C1CC(c2ccccc2Cl)C2(C(=O)NC(=O)NC2=O)C(c2ccccc2Cl)C1` (stereo not given): the TGI is > 100 µM.

As to `Cc1cn(CCCCCOC(=O)NC(CCCNC(N)=O)C(=O)O)c(=O)[nH]c1=O` (stereo not given), the TGI was > 100 µM.

As for `O=C1N/N=C\c2ccc(cc2)OCc2cccc(n2)COc2ccc(cc2)/C=N\NC1=O`, the TGI was > 25 µM.

Turning to `CC1CCc2sc3nc4n(c(=O)c3c2C1)CC(C)S4` (stereo not given), the TGI was > 100 µM.

Take `Cc1cccc(NS(=O)(=O)c2ccc(N=Nc3c(O)c(C(=O)O)cc4ccccc34)cc2)n1`: the TGI is > 100 µM.

Regarding `O=C(OC12CC3CC(CC(C3)C1)C2)c1ccc(NCc2cc(O)ccc2O)cc1`, the TGI is 2.69 µM.

Consider `C#CCOCC12C=CC(O1)C1COC(=O)C12` (stereo not given), for which the TGI is > 100 µM.

The compound `C=C(C)[C@H]1CC(=O)/C(C)=C\CC/C(C)=C/CC[C@@]2(C)O[C@@H]2C1` registered a TGI of 49.8 µM.

Consider `CN(C)CCCNc1cc(O)c2c(c1O)C(=O)c1ccccc1C2=O`, for which the TGI is 27.2 µM.

Regarding `C[n+]1c(-c2ccc(NC(=O)c3ccc(C(=O)Nc4ccc(-c5cn6ccccc6[n+]5C)cc4)cc3)cc2)cn2ccccc21`, the TGI is > 100 µM.

The next assay concerns UACC-257 melanoma. The assay is described as follows: NCI-60 cell line screen, 48 h.
Regarding `Clc1cc(C(c2cc(Cl)sc2Cl)c2cc(Cl)sc2Cl)c(Cl)s1`, the TGI is > 100 µM.

Consider `O=P(OCc1ccccc1)(OCc1ccccc1)C(O)/C=C/c1ccccc1` (stereo not given), for which the TGI was 38.6 µM.

As for `C[N+]1(CCN=C=NC2CCCCC2)CCOCC1`, the TGI is > 100 µM.

As for `Cc1cc(S(=O)(=O)Nc2n[nH]c(Nc3ccccc3)n2)c(SCC(=O)O)cc1Cl`, the TGI was > 100 µM.

The compound `NCCN(CCN(C(=O)Nc1ccccc1)c1ccccc1)C(=O)Nc1ccccc1` came in with a TGI of 36.4 µM.

Regarding `COc1cc2c3c(cc(Cl)nc3c1OC)C(=O)C(=O)N2`, the TGI stood at 21.9 µM.

Take `CCCCCCCCCCCCOCCOCCOCCOCCOCCOCC(=O)NC(Cc1ccccc1)C(=O)Oc1ccc([N+](=O)[O-])cc1` (stereo not given): the TGI is > 100 µM.

Consider `O=C1CS/C(=N/N=C/c2cn(Cc3ccc(Cl)cc3Cl)c3ccccc23)N1`, for which the TGI is > 100 µM.

Consider `O=C1CC(c2ccccc2Cl)C2(C(=O)NC(=O)NC2=O)C(c2ccccc2Cl)C1` (stereo not given), for which the TGI is > 100 µM.

For `Cc1cn(CCCCCOC(=O)NC(CCCNC(N)=O)C(=O)O)c(=O)[nH]c1=O` (stereo not given), the TGI was > 100 µM.

For `O=C1N/N=C\c2ccc(cc2)OCc2cccc(n2)COc2ccc(cc2)/C=N\NC1=O`, the TGI is > 25 µM.

On to `CC1CCc2sc3nc4n(c(=O)c3c2C1)CC(C)S4` (stereo not given), for which the TGI is 50.9 µM.

Regarding `Cc1cccc(NS(=O)(=O)c2ccc(N=Nc3c(O)c(C(=O)O)cc4ccccc34)cc2)n1`, the TGI was > 100 µM.

As to `O=C(OC12CC3CC(CC(C3)C1)C2)c1ccc(NCc2cc(O)ccc2O)cc1`, the TGI came out at 2.98 µM.

As to `C#CCOCC12C=CC(O1)C1COC(=O)C12` (stereo not given), the TGI was > 100 µM.

Regarding `C=C(C)[C@H]1CC(=O)/C(C)=C\CC/C(C)=C/CC[C@@]2(C)O[C@@H]2C1`, the TGI is > 100 µM.

Compound `CN(C)CCCNc1cc(O)c2c(c1O)C(=O)c1ccccc1C2=O` came in with a TGI of 26.6 µM.

As to `C[n+]1c(-c2ccc(NC(=O)c3ccc(C(=O)Nc4ccc(-c5cn6ccccc6[n+]5C)cc4)cc3)cc2)cn2ccccc21`, the TGI is > 100 µM.
